Data reported in publication PMC8631710, “Structure-Based Design of Selective Fat Mass and Obesity Associated Protein (FTO) Inhibitors” (Journal of Medicinal Chemistry, 2021).

Legend:
KDM3A = target: T1, KDM3A (Homo sapiens, UniProt Q9Y4C1); test: histone demethylase luminescence-based AlphaScreen assay, KDM3A; format: biochemical; conditions: KDM3A 0.25 nM, 95% confidence limits printed in parentheses, read-out: IC50 against KDM3A
T1 sequence (Q9Y4C1 1-1321): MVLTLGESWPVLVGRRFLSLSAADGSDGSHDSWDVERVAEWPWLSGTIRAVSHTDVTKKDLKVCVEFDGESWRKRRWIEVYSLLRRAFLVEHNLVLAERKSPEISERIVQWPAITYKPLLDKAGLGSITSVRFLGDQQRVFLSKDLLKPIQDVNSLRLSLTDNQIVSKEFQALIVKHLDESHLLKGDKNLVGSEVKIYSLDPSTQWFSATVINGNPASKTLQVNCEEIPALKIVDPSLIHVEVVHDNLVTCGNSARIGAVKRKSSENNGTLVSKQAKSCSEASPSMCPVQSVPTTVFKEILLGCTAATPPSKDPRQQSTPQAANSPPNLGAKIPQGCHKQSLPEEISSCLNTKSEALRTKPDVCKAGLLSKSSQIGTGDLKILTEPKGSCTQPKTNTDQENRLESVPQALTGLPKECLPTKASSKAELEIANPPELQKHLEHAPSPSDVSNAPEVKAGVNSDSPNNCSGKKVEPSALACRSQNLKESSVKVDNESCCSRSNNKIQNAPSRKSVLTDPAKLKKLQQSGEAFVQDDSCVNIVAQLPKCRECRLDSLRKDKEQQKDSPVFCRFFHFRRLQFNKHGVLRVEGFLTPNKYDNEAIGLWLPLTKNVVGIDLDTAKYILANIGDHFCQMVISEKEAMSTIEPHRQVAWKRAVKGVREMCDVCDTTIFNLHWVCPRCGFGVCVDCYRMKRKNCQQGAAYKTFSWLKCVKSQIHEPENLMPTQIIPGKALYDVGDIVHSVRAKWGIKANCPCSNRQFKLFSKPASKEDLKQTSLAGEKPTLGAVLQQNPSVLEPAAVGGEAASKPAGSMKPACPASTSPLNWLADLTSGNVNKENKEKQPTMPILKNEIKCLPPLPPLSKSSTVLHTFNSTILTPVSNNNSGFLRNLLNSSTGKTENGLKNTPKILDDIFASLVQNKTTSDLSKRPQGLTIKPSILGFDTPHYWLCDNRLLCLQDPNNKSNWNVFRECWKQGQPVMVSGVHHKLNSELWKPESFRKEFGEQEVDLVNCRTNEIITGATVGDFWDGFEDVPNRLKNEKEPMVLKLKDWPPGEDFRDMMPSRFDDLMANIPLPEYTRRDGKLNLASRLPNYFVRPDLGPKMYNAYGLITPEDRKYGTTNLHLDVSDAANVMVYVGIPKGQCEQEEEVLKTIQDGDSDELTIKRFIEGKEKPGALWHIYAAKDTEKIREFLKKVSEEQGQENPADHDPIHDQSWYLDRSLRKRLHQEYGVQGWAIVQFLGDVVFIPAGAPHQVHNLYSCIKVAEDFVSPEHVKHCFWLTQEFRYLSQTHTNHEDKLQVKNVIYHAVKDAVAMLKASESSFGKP
Description: (§1) PHD2, FIH, […] inhibition assays were performed using a solid-phase extraction–mass spectrometry-based methods as described.[34] KDM inhibition assays were performed using an AlphaScreen-based assay as described.[35]

KDM5B = KDM5B (Homo sapiens, UniProt Q9UGL1); test: histone demethylase luminescence-based AlphaScreen assay, KDM5B; format: biochemical; conditions: KDM5B 2.0 nM, 95% confidence limits printed in parentheses, read-out: IC50 against KDM5B
Description: as §1

KDM2A = target: T2, KDM2A (Homo sapiens, UniProt Q9Y2K7); test: histone demethylase luminescence-based AlphaScreen assay, KDM2A; format: biochemical; conditions: KDM2A 25 nM, 95% confidence limits printed in parentheses, read-out: IC50 against KDM2A
T2 sequence (Q9Y2K7 1-1162): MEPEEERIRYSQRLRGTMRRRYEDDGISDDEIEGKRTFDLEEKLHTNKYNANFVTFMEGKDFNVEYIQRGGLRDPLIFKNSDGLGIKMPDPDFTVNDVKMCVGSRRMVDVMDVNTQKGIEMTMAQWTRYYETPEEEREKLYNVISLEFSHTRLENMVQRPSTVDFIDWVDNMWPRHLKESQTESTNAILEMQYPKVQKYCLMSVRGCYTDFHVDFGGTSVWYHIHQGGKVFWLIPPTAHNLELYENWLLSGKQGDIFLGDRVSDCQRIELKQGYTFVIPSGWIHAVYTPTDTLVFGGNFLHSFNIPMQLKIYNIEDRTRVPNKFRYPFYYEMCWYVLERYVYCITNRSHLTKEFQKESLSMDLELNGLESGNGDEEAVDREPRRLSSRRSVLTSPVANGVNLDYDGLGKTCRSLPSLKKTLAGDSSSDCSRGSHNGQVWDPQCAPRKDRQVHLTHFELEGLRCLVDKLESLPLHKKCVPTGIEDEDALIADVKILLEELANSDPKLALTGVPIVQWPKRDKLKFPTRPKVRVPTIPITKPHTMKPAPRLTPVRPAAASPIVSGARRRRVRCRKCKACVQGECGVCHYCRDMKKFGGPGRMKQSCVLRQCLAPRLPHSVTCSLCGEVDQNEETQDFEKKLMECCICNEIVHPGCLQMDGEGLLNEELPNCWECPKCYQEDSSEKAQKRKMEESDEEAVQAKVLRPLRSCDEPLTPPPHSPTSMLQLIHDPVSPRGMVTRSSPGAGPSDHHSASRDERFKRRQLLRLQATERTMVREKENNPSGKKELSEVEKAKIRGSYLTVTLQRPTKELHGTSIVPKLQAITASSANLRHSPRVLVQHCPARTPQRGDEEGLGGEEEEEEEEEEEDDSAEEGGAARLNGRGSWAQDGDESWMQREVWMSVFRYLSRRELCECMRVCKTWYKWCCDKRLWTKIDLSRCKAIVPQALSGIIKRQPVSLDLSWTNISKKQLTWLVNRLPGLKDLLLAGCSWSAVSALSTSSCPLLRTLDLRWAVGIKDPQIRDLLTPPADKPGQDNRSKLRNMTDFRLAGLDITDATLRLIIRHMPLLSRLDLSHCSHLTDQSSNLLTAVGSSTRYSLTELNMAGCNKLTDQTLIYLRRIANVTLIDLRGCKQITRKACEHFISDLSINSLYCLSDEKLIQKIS
Description: as §1

KDM5A = KDM5A (Homo sapiens, UniProt P29375); test: histone demethylase luminescence-based AlphaScreen assay, KDM5A; format: biochemical; conditions: KDM5A 4.0 nM, 95% confidence limits printed in parentheses, read-out: IC50 against KDM5A
Description: as §1

KDM5D = KDM5D (Homo sapiens, UniProt Q9BY66); test: histone demethylase luminescence-based AlphaScreen assay, KDM5D; format: biochemical; conditions: KDM5D 2.0 nM, 95% confidence limits printed in parentheses, read-out: IC50 against KDM5D
KDM5D, sequence (Q9BY66 whole entry): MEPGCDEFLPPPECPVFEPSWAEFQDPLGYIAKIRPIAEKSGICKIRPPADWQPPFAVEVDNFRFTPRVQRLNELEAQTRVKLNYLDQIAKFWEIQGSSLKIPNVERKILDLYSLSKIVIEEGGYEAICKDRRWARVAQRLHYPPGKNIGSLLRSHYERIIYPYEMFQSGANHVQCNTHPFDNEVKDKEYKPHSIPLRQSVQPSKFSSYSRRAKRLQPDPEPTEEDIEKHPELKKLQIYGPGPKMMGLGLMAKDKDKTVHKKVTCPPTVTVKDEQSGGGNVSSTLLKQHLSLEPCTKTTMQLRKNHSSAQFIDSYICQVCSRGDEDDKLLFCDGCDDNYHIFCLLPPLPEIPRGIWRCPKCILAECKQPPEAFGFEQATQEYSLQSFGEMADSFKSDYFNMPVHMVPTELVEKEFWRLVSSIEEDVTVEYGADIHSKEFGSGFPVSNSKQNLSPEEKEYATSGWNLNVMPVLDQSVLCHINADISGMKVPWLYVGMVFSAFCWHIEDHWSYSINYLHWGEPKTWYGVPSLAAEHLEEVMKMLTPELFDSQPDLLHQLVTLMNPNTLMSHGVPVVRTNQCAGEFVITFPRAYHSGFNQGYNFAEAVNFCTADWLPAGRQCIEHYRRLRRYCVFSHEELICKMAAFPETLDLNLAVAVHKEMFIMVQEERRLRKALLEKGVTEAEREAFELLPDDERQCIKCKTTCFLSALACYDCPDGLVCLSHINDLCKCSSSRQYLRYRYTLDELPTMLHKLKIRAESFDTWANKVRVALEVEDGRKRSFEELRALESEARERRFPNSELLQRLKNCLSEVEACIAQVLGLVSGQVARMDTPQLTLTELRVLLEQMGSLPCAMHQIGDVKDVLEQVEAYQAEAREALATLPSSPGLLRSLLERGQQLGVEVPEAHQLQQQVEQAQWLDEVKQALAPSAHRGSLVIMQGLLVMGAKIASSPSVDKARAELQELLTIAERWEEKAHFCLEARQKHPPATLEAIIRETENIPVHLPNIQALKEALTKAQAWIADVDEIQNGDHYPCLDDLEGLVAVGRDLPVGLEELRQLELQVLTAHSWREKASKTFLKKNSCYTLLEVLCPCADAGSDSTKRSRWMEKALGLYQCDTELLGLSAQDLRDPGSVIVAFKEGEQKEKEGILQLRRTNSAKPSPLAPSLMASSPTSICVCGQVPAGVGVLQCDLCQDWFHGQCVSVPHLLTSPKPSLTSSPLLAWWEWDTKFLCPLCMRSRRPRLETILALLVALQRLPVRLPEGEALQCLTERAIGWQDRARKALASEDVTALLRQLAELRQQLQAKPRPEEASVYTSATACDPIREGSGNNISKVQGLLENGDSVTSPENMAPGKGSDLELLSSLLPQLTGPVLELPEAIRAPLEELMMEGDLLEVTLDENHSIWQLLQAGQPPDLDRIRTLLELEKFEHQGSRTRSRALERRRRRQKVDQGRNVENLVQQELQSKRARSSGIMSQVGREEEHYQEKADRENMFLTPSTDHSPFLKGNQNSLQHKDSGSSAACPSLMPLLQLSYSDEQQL

KDM5A, sequence (P29375 whole entry): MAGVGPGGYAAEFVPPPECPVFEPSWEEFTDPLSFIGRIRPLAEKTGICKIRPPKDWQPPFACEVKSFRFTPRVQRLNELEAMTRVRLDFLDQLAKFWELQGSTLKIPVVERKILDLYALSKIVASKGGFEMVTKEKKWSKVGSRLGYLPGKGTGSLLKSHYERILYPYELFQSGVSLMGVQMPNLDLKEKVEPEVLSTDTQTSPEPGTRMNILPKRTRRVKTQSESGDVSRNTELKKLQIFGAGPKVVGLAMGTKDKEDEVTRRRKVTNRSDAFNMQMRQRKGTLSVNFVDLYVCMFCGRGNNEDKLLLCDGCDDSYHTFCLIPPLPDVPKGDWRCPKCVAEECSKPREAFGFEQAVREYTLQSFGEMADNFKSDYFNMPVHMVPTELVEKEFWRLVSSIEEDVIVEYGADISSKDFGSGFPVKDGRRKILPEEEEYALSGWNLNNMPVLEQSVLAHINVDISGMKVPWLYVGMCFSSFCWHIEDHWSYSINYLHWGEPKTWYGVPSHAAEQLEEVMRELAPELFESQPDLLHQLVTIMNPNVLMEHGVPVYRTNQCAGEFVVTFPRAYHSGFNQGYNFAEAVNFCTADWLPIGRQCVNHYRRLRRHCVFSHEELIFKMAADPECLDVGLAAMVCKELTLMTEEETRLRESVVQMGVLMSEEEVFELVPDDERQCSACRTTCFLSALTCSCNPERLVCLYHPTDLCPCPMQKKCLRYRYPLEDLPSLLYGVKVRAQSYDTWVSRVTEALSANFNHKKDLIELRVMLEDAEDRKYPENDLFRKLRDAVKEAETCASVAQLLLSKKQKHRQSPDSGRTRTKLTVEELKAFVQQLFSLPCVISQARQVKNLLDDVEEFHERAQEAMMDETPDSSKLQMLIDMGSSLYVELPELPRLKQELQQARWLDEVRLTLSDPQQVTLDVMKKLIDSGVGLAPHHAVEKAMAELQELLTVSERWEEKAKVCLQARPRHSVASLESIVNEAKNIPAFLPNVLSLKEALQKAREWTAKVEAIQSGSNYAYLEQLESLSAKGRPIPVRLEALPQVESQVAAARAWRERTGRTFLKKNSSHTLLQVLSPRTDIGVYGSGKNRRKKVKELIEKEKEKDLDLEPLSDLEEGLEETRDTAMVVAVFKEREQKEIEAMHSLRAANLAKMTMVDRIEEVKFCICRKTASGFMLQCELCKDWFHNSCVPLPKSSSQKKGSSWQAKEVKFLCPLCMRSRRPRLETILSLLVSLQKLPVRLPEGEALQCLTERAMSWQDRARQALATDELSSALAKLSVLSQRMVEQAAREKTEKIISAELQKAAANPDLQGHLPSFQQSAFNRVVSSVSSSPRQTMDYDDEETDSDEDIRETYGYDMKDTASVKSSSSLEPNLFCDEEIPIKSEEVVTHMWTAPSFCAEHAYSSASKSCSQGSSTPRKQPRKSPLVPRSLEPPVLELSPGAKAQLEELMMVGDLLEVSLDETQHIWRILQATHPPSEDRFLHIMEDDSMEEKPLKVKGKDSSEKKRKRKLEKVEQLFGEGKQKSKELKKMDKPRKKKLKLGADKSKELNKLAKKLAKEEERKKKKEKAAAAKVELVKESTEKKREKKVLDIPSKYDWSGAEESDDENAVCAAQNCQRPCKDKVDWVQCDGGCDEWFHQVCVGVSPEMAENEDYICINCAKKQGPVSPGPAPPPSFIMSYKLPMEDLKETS
KDM5B, sequence (Q9UGL1 whole entry): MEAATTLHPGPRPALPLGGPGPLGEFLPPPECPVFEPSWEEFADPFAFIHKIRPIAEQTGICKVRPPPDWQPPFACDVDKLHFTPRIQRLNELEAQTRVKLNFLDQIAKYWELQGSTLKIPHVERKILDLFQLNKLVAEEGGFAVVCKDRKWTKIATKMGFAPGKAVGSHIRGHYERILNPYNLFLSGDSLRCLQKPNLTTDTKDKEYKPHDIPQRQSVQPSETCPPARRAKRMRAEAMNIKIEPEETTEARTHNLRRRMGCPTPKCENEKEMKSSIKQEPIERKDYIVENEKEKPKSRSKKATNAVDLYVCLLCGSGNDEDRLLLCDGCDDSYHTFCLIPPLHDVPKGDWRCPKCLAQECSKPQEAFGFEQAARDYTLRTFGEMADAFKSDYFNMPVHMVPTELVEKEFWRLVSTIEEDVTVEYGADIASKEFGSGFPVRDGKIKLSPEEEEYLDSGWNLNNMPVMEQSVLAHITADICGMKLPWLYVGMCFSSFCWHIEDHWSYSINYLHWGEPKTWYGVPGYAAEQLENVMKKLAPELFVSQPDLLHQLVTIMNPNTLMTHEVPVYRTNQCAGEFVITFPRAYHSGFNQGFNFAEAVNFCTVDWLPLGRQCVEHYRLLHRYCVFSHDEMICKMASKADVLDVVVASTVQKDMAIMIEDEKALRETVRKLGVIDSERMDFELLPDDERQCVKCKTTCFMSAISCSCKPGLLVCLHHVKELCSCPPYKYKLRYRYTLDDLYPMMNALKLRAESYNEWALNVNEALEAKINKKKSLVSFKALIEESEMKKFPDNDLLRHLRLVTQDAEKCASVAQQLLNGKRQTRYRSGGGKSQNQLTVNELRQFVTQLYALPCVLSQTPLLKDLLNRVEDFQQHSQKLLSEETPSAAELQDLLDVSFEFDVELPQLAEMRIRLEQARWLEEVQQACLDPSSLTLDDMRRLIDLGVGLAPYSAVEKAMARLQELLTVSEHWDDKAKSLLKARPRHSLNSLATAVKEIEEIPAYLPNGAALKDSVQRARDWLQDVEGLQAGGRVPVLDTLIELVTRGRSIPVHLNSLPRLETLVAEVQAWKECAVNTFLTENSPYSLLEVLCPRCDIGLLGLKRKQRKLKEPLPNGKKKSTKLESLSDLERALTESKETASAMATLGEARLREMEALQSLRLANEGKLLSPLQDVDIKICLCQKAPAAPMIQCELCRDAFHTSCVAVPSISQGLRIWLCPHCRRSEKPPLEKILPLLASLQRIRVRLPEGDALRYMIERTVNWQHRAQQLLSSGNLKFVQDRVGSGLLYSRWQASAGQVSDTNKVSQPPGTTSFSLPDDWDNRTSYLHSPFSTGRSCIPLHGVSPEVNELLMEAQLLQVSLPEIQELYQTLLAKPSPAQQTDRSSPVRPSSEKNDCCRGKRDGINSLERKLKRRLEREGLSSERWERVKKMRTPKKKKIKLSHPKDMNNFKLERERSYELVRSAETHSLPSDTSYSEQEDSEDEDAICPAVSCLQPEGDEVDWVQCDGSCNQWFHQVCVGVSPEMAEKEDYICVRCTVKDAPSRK

Row | SMILES | IC50 (KDM3A) [µM] | IC50 (KDM5B) [µM] | IC50 (KDM2A) [µM] | IC50 (KDM5A) [µM] | IC50 (KDM5D) [µM] | melting point [°C]
1 | COC(=O)c1ccc(Nc2ccc(O)c(C(=O)NCC(=O)O)n2)cc1 [14g, 3-Hydroxy-6-(((4-(methoxycarbonyl)phenyl)amino)picolinoyl)glycine] | > 100 | > 100 | > 100 | > 100 | > 100 | 264 to 267
2 | O=C(O)CNC(=O)c1nc(Nc2ccc([N+](=O)[O-])cn2)ccc1O [14b, 3-Hydroxy-6-(((5-nitropyridin-2-yl)amino)picolinoyl)glycine] | 41.9 | 87.8 | > 100 | > 100 | > 100 | > 300
3 | Nc1ccc(Nc2ccc(O)c(C(=O)NCC(=O)O)n2)cc1 [14c, 6-(((4-Aminophenyl)amino)-3-hydroxypicolinoyl)glycine] | 52 | 63.1 | > 100 | 53.8 | 85.1 | > 300
4 | O=C(O)CNC(=O)c1nc(-c2cccc3ncccc23)ccc1O [13d, N-((3-Hydroxy-6-(quinolin-5-yl)pyridin-2-yl)carbonyl)glycine] | > 100 | 40.5 | 84 | 32.3 | > 100 | 
5 | O=C(O)CNC(=O)c1nc(-c2ccccc2-c2ccccc2)ccc1O [13b, N-((6-(Biphenyl-2-yl)-3-hydroxypyridin-2-yl)carbonyl)glycine] | 13 | 88.8 | 50.2 | 50.9 | 41.7 | 
6 | O=C(O)/C=C/C(=O)NNC(=O)c1cnccc1Cc1ccccc1 [compound 15, (E)-4-(2-(4-Benzylnicotinoyl)hydrazineyl)-4-oxobut-2-enoic Acid, reference compound] | 0.4 | 83.9 | 0.063 | > 100 | > 100 | 
7 | O=C(O)CNC(=O)c1nc(Nc2ccc([N+](=O)[O-])cc2)ccc1O [14a, 3-Hydroxy-6-(((4-nitrophenyl)amino)picolinoyl)glycine] | > 100 | 46.3 | > 100 | 81.7 | 27.5 | > 300
8 | Nc1ccc(Nc2ccc(O)c(C(=O)NCC(=O)O)n2)nc1 [14d, 6-(((5-Aminopyridin-2-yl)amino)-3-hydroxypicolinoyl)glycine] | 51.3 | 39.8 | 81 | > 100 | > 100 | 
9 | CN(C)C(=O)c1ccc(Nc2ccc(O)c(C(=O)NCC(=O)O)n2)cc1 [14i, 6-(((4-(Dimethylcarbamoyl)phenyl)amino)-3-hydroxypicolinoyl)glycine] | > 100 | 53.4 | > 100 | > 100 | > 100 | > 300
10 | CNC(=O)c1ccc(Nc2ccc(O)c(C(=O)NCC(=O)O)n2)cc1 [14h, 3-Hydroxy-6-(((4-(methylcarbamoyl)phenyl)amino)picolinoyl)glycine] | 69.4 | 17.7 | > 100 | 63.7 | 57.8 | > 300
11 | O=C(O)CNC(=O)c1nc(-c2cccc3ccccc23)ccc1O [13c, N-((3-Hydroxy-6-(naphthalen-1-yl)pyridin-2-yl)carbonyl)glycine] | > 100 | > 100 | > 100 | > 100 | > 100 | 179 to 182
